# From PMC11620506, “Inhibition of endocytic uptake of severe acute respiratory syndrome coronavirus 2 and endo-lysosomal acidification by diphenoxylate” (Antimicrobial Agents and Chemotherapy, 2024)
# Legend:
# [1] = test system: SARS-CoV-2 Alpha, GR(B.1.1.7), hCoV-19/Korea/KDCA51463/2021; test: microbe, parasite or virus in culture; conditions: Severe acute respiratory syndrome coronavirus 2, Vero
# [2] = test system: SARS-CoV-2 Beta, GH(B.1.351), hCoV-19/Korea/KDCA55905/2021; test: microbe, parasite or virus in culture; conditions: Severe acute respiratory syndrome coronavirus 2, Vero
# [3] = test system: SARS-CoV-2 Omicron, GRA(B.1.1.529), hCoV-19/Korea/KDCA447321/2021; test: microbe, parasite or virus in culture; conditions: Severe acute respiratory syndrome coronavirus 2, Vero
# [4] = test system: SARS-CoV-2 Beta, GH(B.1.351), hCoV-19/Korea/KDCA55905/2021; conditions: Vero cells
# [5] = test system: SARS-CoV-2 Alpha, GR(B.1.1.7), hCoV-19/Korea/KDCA51463/2021; conditions: Vero cells
# [6] = test system: SARS-CoV-2 Delta, G(B.1.617.2), hCoV-19/Korea/KDCA119861/2021; conditions: Vero cells
# [7] = test system: SARS-CoV-2 Delta, G(B.1.617.2), hCoV-19/Korea/KDCA119861/2021; test: microbe, parasite or virus in culture; conditions: Severe acute respiratory syndrome coronavirus 2, Vero
# [8] = test system: SARS-CoV-2 Gamma, GR(P.1), hCoV-19/Korea/KDCA95637/2021; conditions: for SI, ratio of CC50 to EC50: Gamma, Vero cells
# [9] = test system: SARS-CoV-2 Gamma, GR(P.1), hCoV-19/Korea/KDCA95637/2021; test: microbe, parasite or virus in culture; conditions: Severe acute respiratory syndrome coronavirus 2, Vero
# [10] = test system: SARS-CoV-2 Omicron, GRA(B.1.1.529), hCoV-19/Korea/KDCA447321/2021; conditions: Vero cells
Compound,EC50 [1],EC50 [2],EC50 [3],"SI, ratio of CC50 to EC50 [4]","SI, ratio of CC50 to EC50 [5]","SI, ratio of CC50 to EC50 [6]",EC50 [7],potency relative to remdesivir (times more potent) [8],"SI, ratio of CC50 to EC50 [8]",EC50 [9],"SI, ratio of CC50 to EC50 [10]"
"CCOC(=O)C1(c2ccccc2)CCN(CCC(C#N)(c2ccccc2)c2ccccc2)CC1 [Diphenoxylate, diphenoxylate]",1.9 ± 0.2 µM,4.9 ± 0.3 µM,3.2 ± 0.6 µM,> 20.4,> 52.5,> 36.2,2.8 ± 0.6 µM,up to 6.5 times,> 68.0,1.5 ± 0.1 µM,> 31.3
"CCC(CC)COC(=O)[C@H](C)N[P@](=O)(OC[C@H]1O[C@@](C#N)(c2ccc3c(N)ncnn23)[C@H](O)[C@@H]1O)Oc1ccccc1 [RDV, remdesivir]",7 ± 1 µM,12.2 ± 0.4 µM,1.6 ± 0.5 µM,> 8.2,–,> 23.6,4.2 µM,–,> 10.3,9.7 ± 0.7 µM,> 60.7
